# Read-outs that look alike come from different tables or passages of the source. Starred links: 1 amine or outer side, 2 acyl side, 3 side chain; linkers in the order of their positions; H or OH if unused. Positions of bridges follow the written chain, without caps; N, C: chain ends. Non-standard residues stand in square brackets, D forms with d. Residues, ends and D or L forms follow the SMILES beside them. Chains are numbered I, II in the order given. Hexamethylenediamine = C(CCCN[*:2])CCN[*:1]; Dip = N[C@H](C(=O)O)C(c1ccccc1)c1ccccc1; Chg = N[C@H](C(=O)O)C1CCCCC1; NMeA = CN[C@@H](C)C(=O)O
# T1: BIRC1 BIR[2] (Homo sapiens, UniProt Q13075)
# T1 sequence (Q13075 139-251): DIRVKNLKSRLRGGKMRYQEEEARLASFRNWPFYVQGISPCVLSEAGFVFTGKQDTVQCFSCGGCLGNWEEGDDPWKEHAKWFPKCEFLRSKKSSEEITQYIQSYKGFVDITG
# T2: BIRC8 (Homo sapiens, UniProt Q96P09)
# T2 sequence (Q96P09 1-236): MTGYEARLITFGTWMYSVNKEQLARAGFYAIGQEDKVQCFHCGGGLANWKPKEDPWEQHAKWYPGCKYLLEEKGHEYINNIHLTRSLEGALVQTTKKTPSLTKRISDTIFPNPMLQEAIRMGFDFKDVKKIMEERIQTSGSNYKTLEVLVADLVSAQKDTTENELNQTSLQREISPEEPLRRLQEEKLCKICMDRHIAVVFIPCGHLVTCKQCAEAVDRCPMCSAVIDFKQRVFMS
# T3: BIRC8 BIR (Homo sapiens, UniProt Q96P09)
# T3 sequence (Q96P09 1-90): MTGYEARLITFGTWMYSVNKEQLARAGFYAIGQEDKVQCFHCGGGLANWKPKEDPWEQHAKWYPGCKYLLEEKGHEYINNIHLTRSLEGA
# T4: BIRC7 (Homo sapiens, UniProt Q96CA5)
# T4 sequence (Q96CA5 1-298): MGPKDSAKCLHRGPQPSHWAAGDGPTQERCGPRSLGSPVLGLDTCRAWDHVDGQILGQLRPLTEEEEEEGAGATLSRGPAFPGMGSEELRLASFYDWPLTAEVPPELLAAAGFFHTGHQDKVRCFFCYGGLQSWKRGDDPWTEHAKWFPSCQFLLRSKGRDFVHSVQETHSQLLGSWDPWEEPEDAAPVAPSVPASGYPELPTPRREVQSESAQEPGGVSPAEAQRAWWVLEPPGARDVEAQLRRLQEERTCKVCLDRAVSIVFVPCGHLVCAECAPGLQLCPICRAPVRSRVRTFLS
# T5: BIRC7 BIR (Homo sapiens, UniProt Q96CA5)
# T5 sequence (Q96CA5 70-176): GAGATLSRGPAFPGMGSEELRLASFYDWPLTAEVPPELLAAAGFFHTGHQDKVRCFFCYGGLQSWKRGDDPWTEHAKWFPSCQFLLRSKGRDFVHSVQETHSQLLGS
# What was measured:
# [1] = molecular target: BIRC2 (Homo sapiens, UniProt Q13490); test: NanoBRET cellular target engagement, full-length BIRC2
# Protocol: (§1) In brief: Constructs contained the cDNA of full-length or single domains cloned in frame with an N-terminal NanoLuc-fusion as specified in Supplementary Table S2. Plasmids were transfected into HEK293T cells using FuGENE HD (Promega, E2312) and proteins were allowed to express for 20 h. […] The corresponding transfected cells were added and reseeded at a density of 2.5^5 cells/mL after trypsinization and resuspending in Opti-MEM without phenol red (Life Technologies). […] Competitive displacement data were then graphed using GraphPad Prism 9.3 software using a normalized 3-parameter curve fit with the following equation: Y = 100/(1 + 10^(X-LogIC50)).
# [2] = molecular target: T1, BIRC1 BIR[2]; test: NanoBRET cellular target engagement, single domain BIRC1 BIR[2]
# Protocol: as §1
# [3] = molecular target: BIRC2 BIR2 (Homo sapiens, UniProt Q13490); test: NanoBRET cellular target engagement, single domain BIRC2 BIR2
# Protocol: as §1
# [4] = molecular target: T2, BIRC8; test: NanoBRET cellular target engagement, full-length BIRC8
# Protocol: as §1
# [5] = molecular target: T3, BIRC8 BIR; test: NanoBRET cellular target engagement, single domain BIRC8 BIR
# Protocol: as §1
# [6] = molecular target: T6, BIRC2-BIR3 domain (Homo sapiens, UniProt Q13490); parameters: BIRC2-BIR3 domain (260–352) was expressed; His6 (N, cleaved yes); GST (N, cleaved yes); made in house; host or cells: E. coli; details: read-out: Literature FP Assay K I Values, cited from earlier work
# [7] = molecular target: T6, BIRC2-BIR3 domain; test: Isothermal titration calorimetry (ITC); type: binding; parameters: BIRC2-BIR3 domain (260–352) was expressed; His6 (N, cleaved yes); GST (N, cleaved yes); made in house; host or cells: E. coli; details: 25°C; for Kd: duplicates, mean ± SD, read-out: K D Measured in ITC
# Protocol: For this protocol, the chamber was pre-equilibrated with the test compound, and the BIRC2-BIR3 domain was titrated in while continuously measuring the rate of exothermic heat evolution. The heat of binding was integrated, corrected, and fitted to an independent single-binding site model based on the manufacturer’s instructions, from which thermodynamic parameters (ΔH and TΔS), equilibrium association and dissociation constants (K A and K D, respectively), and stoichiometry (n) were calculated.
# [8] = molecular target: T6, BIRC2-BIR3 domain; test: Differential scanning fluorimetry (DSF); details: for Mean, ΔTm [°C] (Supplementary Table S1): mean of n=3, difference to DMSO control; for ΔTm [°C] (Supplementary Table S1): technical replicate
# Protocol: Purified proteins were buffered in DSF buffer (25 mM HEPES pH 7.5, 500 mM NaCl) and were assayed in a 384-well plate (Thermo, #BC3384) with a final protein concentration of 20 μM in 10 μL final assay volume. Inhibitors were added in excess to a final concentration of 40 μM, using an ECHO 550 acoustic dispenser (Labcyte). As a fluorescent probe, SYPRO-Orange (Molecular Probes) was used at 5x final concentration. […] Data was analyzed using Boltzmann-equation in the Protein Thermal Shift software (Applied Biosystems). Samples were measured in technical triplicates.
# The assay was run in the presence of DMSO to exclude DMSO influences towards melting temperature differences when testing small molecules (Figures 2C,D).
# [9] = molecular target: T4, BIRC7; test: NanoBRET cellular target engagement, full-length BIRC7
# Protocol: as §1
# [10] = molecular target: BIRC2 BIR3 (Homo sapiens, UniProt Q13490); test: NanoBRET cellular target engagement, single domain BIRC2 BIR3
# Protocol: as §1
# [11] = molecular target: T5, BIRC7 BIR; test: NanoBRET cellular target engagement, single domain BIRC7 BIR
# Protocol: as §1
# [12] = molecular target: T6, BIRC2-BIR3 domain; test: Fluorescence polarization (FP) competition assay with fluorescent SMAC probe; type: binding; parameters: BIRC2-BIR3 domain (260–352) was expressed; His6 (N, cleaved yes); GST (N, cleaved yes); made in house; host or cells: E. coli; details: read-out: FP Assay K I Values
# Protocol: Resulting data was plotted using GraphPad Prism 9.3 software and analyzed using a nonlinear fit to calculate the probe IC50. […] Compounds were titrated from 20 μM to 20 nM using an ECHO 550 acoustic dispenser (Labcyte) incubated for 1 h at room temperature and subsequent read out.
# The assay is based on the displacement of a fluorescent SMAC mimetic from the binding site.
# [13] = molecular target: BIRC3 BIR2 (Homo sapiens, UniProt Q13489); test: NanoBRET cellular target engagement, single domain BIRC3 BIR2
# Protocol: as §1
# [14] = molecular target: BIRC3 BIR3 (Homo sapiens, UniProt Q13489); test: NanoBRET cellular target engagement, single domain BIRC3 BIR3
# Protocol: as §1
# [15] = molecular target: BIRC4 (Homo sapiens, UniProt P98170); test: NanoBRET cellular target engagement, full-length BIRC4
# Protocol: as §1
# [16] = molecular target: BIRC3 (Homo sapiens, UniProt Q13489); test: NanoBRET cellular target engagement, full-length BIRC3
# Protocol: as §1
# [17] = molecular target: T7, BIRC2-BIR3 domain (260-352) (human, UniProt Q13490 260-352); test: fluorescence polarisation; BIRC2-BIR3 titrated from 40 uM to 600 pM into 30 nM FAM-labelled SMAC probe; 50 mM HEPES pH 7.5, 150 mM NaCl, 5% glycerol, 1 mM TCEP, 0.05% TWEEN20; 1 h at room temperature; details: both partners purified
# T7 construct: BIR3 domain of human BIRC2 (cIAP1), residues 260-352; The expression tag was cleaved with TEV protease; also called BIR3 domain of BIRC2; not shown: His6, N-terminal, cleaved; GST, N-terminal, cleaved
# [18] = read-out: EC50 ± SEM NanoBRET BIRC2, full-length, HEK293T, n = 4
# [19] = read-out: EC50 ± SEM NanoBRET BIRC1 BIR[2], single domain, HEK293T, n = 4
# [20] = read-out: EC50 ± SEM NanoBRET BIRC2 BIR2, single domain, HEK293T, n = 4
# [21] = read-out: EC50 ± SEM NanoBRET BIRC8, full-length, HEK293T, n = 4
# [22] = read-out: EC50 ± SEM NanoBRET BIRC8 BIR, single domain, HEK293T, n = 4
# [23] = read-out: EC50 ± SEM NanoBRET BIRC7, full-length, HEK293T, n = 4
# [24] = read-out: EC50 ± SEM NanoBRET BIRC2 BIR3, single domain, HEK293T, n = 4
# [25] = read-out: EC50 ± SEM NanoBRET BIRC7 BIR, single domain, HEK293T, n = 4
# [26] = BIRC2 BIR3 domain, Cheng-Prusoff from IC50, mean ± SD, n = 3
# BIRC2 BIR2, sequence (Q13490 165-267): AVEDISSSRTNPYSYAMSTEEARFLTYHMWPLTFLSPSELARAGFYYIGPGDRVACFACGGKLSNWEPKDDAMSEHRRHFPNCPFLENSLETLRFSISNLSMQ
# BIRC2 BIR3, sequence (Q13490 251-372): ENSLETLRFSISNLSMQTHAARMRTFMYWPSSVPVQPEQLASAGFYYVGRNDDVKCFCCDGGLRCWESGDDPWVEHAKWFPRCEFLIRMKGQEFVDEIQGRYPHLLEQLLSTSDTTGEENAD
# T6 sequence (Q13490 260-352): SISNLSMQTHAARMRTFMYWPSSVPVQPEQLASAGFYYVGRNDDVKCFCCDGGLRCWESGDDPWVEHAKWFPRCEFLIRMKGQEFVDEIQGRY
# BIRC2, sequence (Q13490 whole entry, the tested form may be a part): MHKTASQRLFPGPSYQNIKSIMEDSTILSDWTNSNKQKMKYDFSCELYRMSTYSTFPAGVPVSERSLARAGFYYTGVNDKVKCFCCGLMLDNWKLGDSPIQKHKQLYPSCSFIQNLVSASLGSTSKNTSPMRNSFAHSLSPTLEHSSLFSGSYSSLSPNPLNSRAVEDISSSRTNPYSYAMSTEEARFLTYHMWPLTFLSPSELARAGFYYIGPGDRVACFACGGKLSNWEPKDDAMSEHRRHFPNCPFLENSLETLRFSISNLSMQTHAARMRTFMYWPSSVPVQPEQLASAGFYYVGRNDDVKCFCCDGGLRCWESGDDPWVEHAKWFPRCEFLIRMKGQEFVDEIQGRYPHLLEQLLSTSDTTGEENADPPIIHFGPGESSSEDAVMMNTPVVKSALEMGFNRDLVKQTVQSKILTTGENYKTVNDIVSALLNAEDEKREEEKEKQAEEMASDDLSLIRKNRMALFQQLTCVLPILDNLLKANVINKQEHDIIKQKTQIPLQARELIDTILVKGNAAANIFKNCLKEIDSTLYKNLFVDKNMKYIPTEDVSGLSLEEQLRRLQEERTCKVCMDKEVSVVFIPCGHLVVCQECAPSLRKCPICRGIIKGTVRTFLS
# BIRC3, sequence (Q13489 whole entry, the tested form may be a part): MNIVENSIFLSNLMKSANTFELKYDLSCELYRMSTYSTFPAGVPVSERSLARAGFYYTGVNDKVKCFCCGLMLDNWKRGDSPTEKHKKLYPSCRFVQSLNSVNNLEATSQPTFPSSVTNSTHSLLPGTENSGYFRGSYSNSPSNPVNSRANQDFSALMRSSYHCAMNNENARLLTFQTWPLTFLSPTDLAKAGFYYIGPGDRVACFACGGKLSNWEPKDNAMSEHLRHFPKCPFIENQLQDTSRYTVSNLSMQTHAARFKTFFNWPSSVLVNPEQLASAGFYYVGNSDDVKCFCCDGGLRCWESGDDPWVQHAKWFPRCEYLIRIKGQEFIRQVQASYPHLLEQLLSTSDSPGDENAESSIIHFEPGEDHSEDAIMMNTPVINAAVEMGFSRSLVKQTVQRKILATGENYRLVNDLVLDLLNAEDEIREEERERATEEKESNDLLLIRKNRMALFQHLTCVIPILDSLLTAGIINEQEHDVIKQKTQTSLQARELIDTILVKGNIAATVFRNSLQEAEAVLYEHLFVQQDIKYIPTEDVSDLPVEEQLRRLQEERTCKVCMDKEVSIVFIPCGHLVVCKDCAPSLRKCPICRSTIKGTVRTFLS
# BIRC3 BIR3, sequence (Q13489 236-360): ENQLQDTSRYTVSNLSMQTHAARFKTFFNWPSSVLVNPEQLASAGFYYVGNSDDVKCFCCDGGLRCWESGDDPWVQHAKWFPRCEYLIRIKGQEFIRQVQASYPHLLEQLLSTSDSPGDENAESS
# BIRC3 BIR2, sequence (Q13489 147-253): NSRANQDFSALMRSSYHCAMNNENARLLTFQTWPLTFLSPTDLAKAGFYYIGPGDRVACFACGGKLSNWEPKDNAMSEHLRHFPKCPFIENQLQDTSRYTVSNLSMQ
# BIRC4, sequence (P98170 whole entry): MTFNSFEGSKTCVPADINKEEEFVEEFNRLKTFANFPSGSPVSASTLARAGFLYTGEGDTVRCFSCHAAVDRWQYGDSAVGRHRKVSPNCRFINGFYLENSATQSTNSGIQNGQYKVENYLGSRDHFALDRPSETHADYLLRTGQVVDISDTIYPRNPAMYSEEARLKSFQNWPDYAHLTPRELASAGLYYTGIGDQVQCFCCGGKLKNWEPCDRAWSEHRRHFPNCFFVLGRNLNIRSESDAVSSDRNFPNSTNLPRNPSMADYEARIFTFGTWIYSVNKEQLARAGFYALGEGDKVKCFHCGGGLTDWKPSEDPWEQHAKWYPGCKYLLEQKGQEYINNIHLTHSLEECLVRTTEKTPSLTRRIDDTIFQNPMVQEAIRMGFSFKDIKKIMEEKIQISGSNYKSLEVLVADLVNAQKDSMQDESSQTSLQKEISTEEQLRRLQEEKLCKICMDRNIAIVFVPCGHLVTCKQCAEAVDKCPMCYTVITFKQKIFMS
# T7 sequence (Q13490 260-352): as the sequence (Q13490 260-352) above
Molecule,"EC50 [1, 18] [µM]","EC50 [2, 19] [µM]","EC50 [3, 20] [µM]","EC50 [4, 21] [µM]","EC50 [5, 22] [µM]",Kd [7] [µM],"Mean, ΔTm [°C] (Supplementary Table S1) [8]",ΔTm [°C] (Supplementary Table S1) ([8]; first column),ΔTm [°C] (Supplementary Table S1) ([8]; second column),ΔTm [°C] (Supplementary Table S1) ([8]; third column),"EC50 [9, 23] [µM]","EC50 [10, 24] [µM]","EC50 [11, 25] [µM]","Ki [12, 26] [µM]",also measured
CN[C@@H](C)C(=O)N[C@H]1CCCC[C@H]2CC[C@@H](C(=O)N[C@@H](c3ccccc3)c3cn(CCCCc4ccc(CCCCn5cc([C@@H](NC(=O)[C@@H]6CC[C@@H]7CCCC[C@H](NC(=O)[C@H](C)NC)C(=O)N76)c6ccccc6)nn5)cc4)nn3)N2C1=O [SM-164],0.0058 ± 0.0006,0.941 ± 0.258,6.61 ± 5.28,0.0857 ± 0.0047,0.0873 ± 0.0094,0.0416 ± 0.0034,13.4,13.6,13.4,13.1,0.0165 ± 0.006,0.0008 ± 0.0001,0.0509 ± 0.0444,0.0018 ± 0.0007,"Ki ([6]; ref Lu et al. (2008)): 0.0003 ± 0.0001 µM; DSF Assay ΔTm ([8]; difference in melting temperature to DMSO control, 20 μM protein, 40 μM inhibitor, mean ± SD, n = 3): 13.4 ± 0.2 °C"
CN[C@@H](C)C(=O)N[C@H](C(=O)N1CCC[C@H]1C(=O)N[C@H]1c2ccccc2C[C@H]1OCC#CC#CCO[C@@H]1Cc2ccccc2[C@@H]1NC(=O)[C@@H]1CCCN1C(=O)[C@@H](NC(=O)[C@H](C)NC)C1CCCCC1)C1CCCCC1 [AZD5582],–,–,–,–,–,0.0411 ± 0.0029,–,18.2,–,17.9,–,–,–,–,"EC50 [1]: 0.192 ± 0.0993 µM; EC50 [2]: 0.776 ± 0.2 µM; EC50 [3]: 0.171 ± 0.151 µM; EC50 [4]: 0.0763 ± 0.0001 µM; EC50 [5]: 0.0855 ± 0.0111 µM; Ki ([6]; calculated from IC50, ref Hennessy et al. (2013)): 0.0064 ± 0.0043 µM; melting temperature of BIRC2 BIR3 domain with compound ([8]; native domain ∼74°C): 92 °C; ΔTm at 40 µM ([8]; read-out: DSF Assay ΔTm): 18 °C; EC50 [9]: 0.008 ± 0.0003 µM; EC50 [13]: 0.0285 ± 0.0032 µM; EC50 [10]: 0.023 ± 0.0144 µM; EC50 [14]: 0.0041 ± 0.0001 µM; EC50 [11]: 0.0161 ± 0.0063 µM; Ki [12]: 0.0023 ± 0.0003 µM; EC50 [15]: 0.0796 ± 0.0375 µM; EC50 [16]: 0.0811 ± 0.0148 µM"
CN[C@@H](C)C(=O)N[C@H](C(=O)N1CCC[C@H]1C(=O)N[C@H](C(=O)NCCCCCCNC(=O)[C@@H](NC(=O)[C@@H]1CCCN1C(=O)[C@@H](NC(=O)[C@H](C)NC)C1CCCCC1)C(c1ccccc1)c1ccccc1)C(c1ccccc1)c1ccccc1)C1CCCCC1 [BV-6] (I: H-[NMeA][Chg]P[Dip] / II: H-[NMeA][Chg]P[Dip]; linker I:C-II:C via Hexamethylenediamine),0.5 ± 0.1,10.9 ± 2.1,> 50,2.6 ± 0.2,3 ± 0.1,0.0248 ± 0.0085,9.1,9.1,9.1,9.1,2.6 ± 0.8,0.8 ± 0.1,2.7 ± 0.8,0.0084 ± 0.0007,"EC50 ± SEM NanoBRET BIRC2 BIR2 ([3]; single domain, HEK293T, n = 4): did not show any binding; Ki ([6]; ref Varfolomeev et al. (2007)): 0.169 µM; ITC TΔS [7]: 29 ± 0.42 kJ/mol; EC50 ([13]; read-out: EC50 ± SEM NanoBRET BIRC3 BIR2, single domain, HEK293T, n = 4): 18 ± 25.2 µM; EC50 ([14]; read-out: EC50 ± SEM NanoBRET BIRC3 BIR3, single domain, HEK293T, n = 4): 1.7 ± 0.4 µM; EC50 ([15]; read-out: EC50 ± SEM NanoBRET BIRC4, full-length, HEK293T, n = 4): 0.9 ± 0.1 µM; EC50 ([16]; read-out: EC50 ± SEM NanoBRET BIRC3, full-length, HEK293T, n = 4): 0.8 ± 0.1 µM"
"AVPIAQKSEKK (5-FAM on the C-terminal lysine (K(5-FAM)); C-terminal amide (NH2), two lysines that follow the SMAC stretch; the last one carries 5-FAM; Probably a synthetic peptide; also called fluorescent SMAC mimetic; tracer) [fluorescently labeled SMAC probe (AVPIAQKSEK-K(5-FAM)-NH2)]",–,–,–,–,–,–,–,–,–,–,–,–,–,–,Kd [17]: 0.0149 µM

# From publication PMC9204419, “A Toolbox for the Generation of Chemical Probes for Baculovirus IAP Repeat Containing Proteins” (Frontiers in Cell and Developmental Biology, 2022)
